Test results as given in PubChem BioAssay (NCI).
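How tested: cells in 96-well plates exposed to compound for 48 hours at five concentrations. GI50: concentration for 50% inhibition of growth. TGI denotes the concentration required for complete inhibition of growth.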

Tests used:
Experiment in all cases: growth of human tumour cells (NCI), 48 h
U251 CNS = test system: U251 CNS
BT-549 breast = test system: BT-549 breast
TK-10 renal = test system: TK-10 renal
CAKI-1 renal = test system: CAKI-1 renal
SNB-75 CNS = test system: SNB-75 CNS
SR leukemia = test system: SR leukemia
COLO 205 colon = test system: COLO 205 colon
MDA-MB-231 breast = test system: MDA-MB-231 breast
IGROV1 ovarian = test system: IGROV1 ovarian
T-47D breast = test system: T-47D breast
RPMI-8226 leukemia = test system: RPMI-8226 leukemia
OVCAR-8 ovarian = test system: OVCAR-8 ovarian
NCI/ADR-RES ovarian = test system: NCI/ADR-RES ovarian
ACHN renal = test system: ACHN renal
786-0 renal = test system: 786-0 renal
HT29 colon = test system: HT29 colon
UACC-62 melanoma = test system: UACC-62 melanoma
SNB-19 CNS = test system: SNB-19 CNS
HOP-62 NSCLC = test system: HOP-62 NSCLC
LOX IMVI melanoma = test system: LOX IMVI melanoma
HL-60(TB) leukemia = test system: HL-60(TB) leukemia
OVCAR-4 ovarian = test system: OVCAR-4 ovarian
HCT-116 colon = test system: HCT-116 colon
SW-620 colon = test system: SW-620 colon
K-562 leukemia = test system: K-562 leukemia
HOP-92 NSCLC = test system: HOP-92 NSCLC
PC-3 prostate = test system: PC-3 prostate
NCI-H226 lung = test system: NCI-H226 lung
M14 melanoma = test system: M14 melanoma
SK-MEL-28 melanoma = test system: SK-MEL-28 melanoma
UO-31 renal = test system: UO-31 renal
HCT-15 colon = test system: HCT-15 colon
DU-145 prostate = test system: DU-145 prostate
MCF7 breast = test system: MCF7 breast
KM12 colon = test system: KM12 colon
NCI-H522 lung = test system: NCI-H522 lung
NCI-H460 lung = test system: NCI-H460 lung
A549 NSCLC = test system: A549 NSCLC
OVCAR-3 ovarian = test system: OVCAR-3 ovarian
SK-MEL-5 melanoma = test system: SK-MEL-5 melanoma
MOLT-4 leukemia = test system: MOLT-4 leukemia
NCI-H23 lung = test system: NCI-H23 lung
SF-539 CNS = test system: SF-539 CNS
SF-295 CNS = test system: SF-295 CNS
MALME-3M melanoma = test system: MALME-3M melanoma
CCRF-CEM leukemia = test system: CCRF-CEM leukemia
OVCAR-5 ovarian = test system: OVCAR-5 ovarian
HCC-2998 colon = test system: HCC-2998 colon
RXF 393 renal = test system: RXF 393 renal
SK-MEL-2 melanoma = test system: SK-MEL-2 melanoma
SF-268 CNS = test system: SF-268 CNS
A498 renal = test system: A498 renal
MDA-MB-435 = test system: MDA-MB-435
SK-OV-3 ovarian = test system: SK-OV-3 ovarian
SN12C renal = test system: SN12C renal

Q: What does the source list for C=CC(C)c1cccc(C=O)c1O (stereo not given)?
A: GI50 (U251 CNS): 42.6 µM; TGI (U251 CNS): > 100 µM; GI50 (BT-549 breast): 23.8 µM; TGI (BT-549 breast): > 100 µM; GI50 (TK-10 renal): 38.8 µM; TGI (TK-10 renal): > 100 µM; GI50 (CAKI-1 renal): 45 µM; TGI (CAKI-1 renal): > 100 µM; GI50 (SNB-75 CNS): 35.1 µM; TGI (SNB-75 CNS): > 100 µM; GI50 (SR leukemia): 3.82 µM; TGI (SR leukemia): > 100 µM; GI50 (COLO 205 colon): > 100 µM; TGI (COLO 205 colon): > 100 µM; GI50 (MDA-MB-231 breast): 27.3 µM; TGI (MDA-MB-231 breast): > 100 µM; GI50 (IGROV1 ovarian): 37 µM; TGI (IGROV1 ovarian): > 100 µM; GI50 (T-47D breast): 28.8 µM; TGI (T-47D breast): > 100 µM; GI50 (RPMI-8226 leukemia): 19.7 µM; TGI (RPMI-8226 leukemia): > 100 µM; GI50 (OVCAR-8 ovarian): 73.6 µM; TGI (OVCAR-8 ovarian): > 100 µM; GI50 (NCI/ADR-RES ovarian): 19.6 µM; TGI (NCI/ADR-RES ovarian): > 100 µM; GI50 (ACHN renal): 80.9 µM; TGI (ACHN renal): > 100 µM; GI50 (786-0 renal): 97.1 µM; TGI (786-0 renal): > 100 µM; GI50 (HT29 colon): 37 µM; TGI (HT29 colon): > 100 µM; GI50 (UACC-62 melanoma): 44.6 µM; TGI (UACC-62 melanoma): > 100 µM; GI50 (SNB-19 CNS): 74.2 µM; TGI (SNB-19 CNS): > 100 µM; GI50 (HOP-62 NSCLC): 49.3 µM; TGI (HOP-62 NSCLC): > 100 µM; GI50 (LOX IMVI melanoma): 30.7 µM; TGI (LOX IMVI melanoma): > 100 µM; GI50 (HL-60(TB) leukemia): 19.9 µM; TGI (HL-60(TB) leukemia): > 100 µM; GI50 (OVCAR-4 ovarian): 75.4 µM; TGI (OVCAR-4 ovarian): > 100 µM; GI50 (HCT-116 colon): 18.1 µM; TGI (HCT-116 colon): > 100 µM; GI50 (SW-620 colon): 27.2 µM; TGI (SW-620 colon): > 100 µM; GI50 (K-562 leukemia): 4.08 µM; TGI (K-562 leukemia): > 100 µM; GI50 (HOP-92 NSCLC): 4.93 µM; TGI (HOP-92 NSCLC): 70.5 µM; GI50 (PC-3 prostate): 26.7 µM; TGI (PC-3 prostate): > 100 µM; GI50 (NCI-H226 lung): > 100 µM; TGI (NCI-H226 lung): > 100 µM; GI50 (M14 melanoma): 27.3 µM; TGI (M14 melanoma): > 100 µM; GI50 (SK-MEL-28 melanoma): > 100 µM; TGI (SK-MEL-28 melanoma): > 100 µM; GI50 (UO-31 renal): 57.9 µM; TGI (UO-31 renal): > 100 µM; GI50 (HCT-15 colon): 22 µM; TGI (HCT-15 colon): > 100 µM; GI50 (DU-145 prostate): 94.9 µM; TGI (DU-145 prostate): > 100 µM; GI50 (MCF7 breast): 15.8 µM; TGI (MCF7 breast): > 100 µM; GI50 (KM12 colon): 91.6 µM; TGI (KM12 colon): > 100 µM; GI50 (NCI-H522 lung): > 100 µM; TGI (NCI-H522 lung): > 100 µM; GI50 (NCI-H460 lung): > 100 µM; TGI (NCI-H460 lung): > 100 µM; GI50 (A549 NSCLC): > 100 µM; TGI (A549 NSCLC): > 100 µM; GI50 (OVCAR-3 ovarian): 58.3 µM; TGI (OVCAR-3 ovarian): > 100 µM; GI50 (SK-MEL-5 melanoma): 49.2 µM; TGI (SK-MEL-5 melanoma): > 100 µM; GI50 (MOLT-4 leukemia): 8.45 µM; TGI (MOLT-4 leukemia): > 100 µM; GI50 (NCI-H23 lung): > 100 µM; TGI (NCI-H23 lung): > 100 µM; GI50 (SF-539 CNS): 45 µM; TGI (SF-539 CNS): > 100 µM; GI50 (SF-295 CNS): > 100 µM; TGI (SF-295 CNS): > 100 µM; GI50 (MALME-3M melanoma): > 100 µM; TGI (MALME-3M melanoma): > 100 µM; GI50 (CCRF-CEM leukemia): 17.4 µM; TGI (CCRF-CEM leukemia): > 100 µM; GI50 (OVCAR-5 ovarian): > 100 µM; TGI (OVCAR-5 ovarian): > 100 µM; GI50 (HCC-2998 colon): > 100 µM; TGI (HCC-2998 colon): > 100 µM; GI50 (RXF 393 renal): 37 µM; TGI (RXF 393 renal): > 100 µM; GI50 (SK-MEL-2 melanoma): 54 µM; TGI (SK-MEL-2 melanoma): > 100 µM; GI50 (SF-268 CNS): 35.8 µM; TGI (SF-268 CNS): > 100 µM; GI50 (A498 renal): > 100 µM; TGI (A498 renal): > 100 µM; GI50 (MDA-MB-435): 4.47 µM; TGI (MDA-MB-435): 41.7 µM; GI50 (SK-OV-3 ovarian): > 100 µM; TGI (SK-OV-3 ovarian): > 100 µM; GI50 (SN12C renal): 53.7 µM; TGI (SN12C renal): > 100 µM
